Measured values: patent publication US7683065B2, “Pyridines useful as modulators of ion channels” (Vertex Pharmaceuticals Incorporated, priority 2005, dated 2010)
Where two headings read alike, the source gives them in different places.

What was measured:
neuropathic pain = conditions: in vivo; cited from earlier work
NaV1.3 = NaV1.3 (Homo sapiens, UniProt Q9NY46); conditions: read-out: TTX IC50; cited from earlier work
NaV1.8 [1] = target: T1, NaV1.8 (Homo sapiens, UniProt Q9Y5Y9); conditions: read-out: TTX IC50; cited from earlier work
T1 sequence (Q9Y5Y9 whole entry, looked up): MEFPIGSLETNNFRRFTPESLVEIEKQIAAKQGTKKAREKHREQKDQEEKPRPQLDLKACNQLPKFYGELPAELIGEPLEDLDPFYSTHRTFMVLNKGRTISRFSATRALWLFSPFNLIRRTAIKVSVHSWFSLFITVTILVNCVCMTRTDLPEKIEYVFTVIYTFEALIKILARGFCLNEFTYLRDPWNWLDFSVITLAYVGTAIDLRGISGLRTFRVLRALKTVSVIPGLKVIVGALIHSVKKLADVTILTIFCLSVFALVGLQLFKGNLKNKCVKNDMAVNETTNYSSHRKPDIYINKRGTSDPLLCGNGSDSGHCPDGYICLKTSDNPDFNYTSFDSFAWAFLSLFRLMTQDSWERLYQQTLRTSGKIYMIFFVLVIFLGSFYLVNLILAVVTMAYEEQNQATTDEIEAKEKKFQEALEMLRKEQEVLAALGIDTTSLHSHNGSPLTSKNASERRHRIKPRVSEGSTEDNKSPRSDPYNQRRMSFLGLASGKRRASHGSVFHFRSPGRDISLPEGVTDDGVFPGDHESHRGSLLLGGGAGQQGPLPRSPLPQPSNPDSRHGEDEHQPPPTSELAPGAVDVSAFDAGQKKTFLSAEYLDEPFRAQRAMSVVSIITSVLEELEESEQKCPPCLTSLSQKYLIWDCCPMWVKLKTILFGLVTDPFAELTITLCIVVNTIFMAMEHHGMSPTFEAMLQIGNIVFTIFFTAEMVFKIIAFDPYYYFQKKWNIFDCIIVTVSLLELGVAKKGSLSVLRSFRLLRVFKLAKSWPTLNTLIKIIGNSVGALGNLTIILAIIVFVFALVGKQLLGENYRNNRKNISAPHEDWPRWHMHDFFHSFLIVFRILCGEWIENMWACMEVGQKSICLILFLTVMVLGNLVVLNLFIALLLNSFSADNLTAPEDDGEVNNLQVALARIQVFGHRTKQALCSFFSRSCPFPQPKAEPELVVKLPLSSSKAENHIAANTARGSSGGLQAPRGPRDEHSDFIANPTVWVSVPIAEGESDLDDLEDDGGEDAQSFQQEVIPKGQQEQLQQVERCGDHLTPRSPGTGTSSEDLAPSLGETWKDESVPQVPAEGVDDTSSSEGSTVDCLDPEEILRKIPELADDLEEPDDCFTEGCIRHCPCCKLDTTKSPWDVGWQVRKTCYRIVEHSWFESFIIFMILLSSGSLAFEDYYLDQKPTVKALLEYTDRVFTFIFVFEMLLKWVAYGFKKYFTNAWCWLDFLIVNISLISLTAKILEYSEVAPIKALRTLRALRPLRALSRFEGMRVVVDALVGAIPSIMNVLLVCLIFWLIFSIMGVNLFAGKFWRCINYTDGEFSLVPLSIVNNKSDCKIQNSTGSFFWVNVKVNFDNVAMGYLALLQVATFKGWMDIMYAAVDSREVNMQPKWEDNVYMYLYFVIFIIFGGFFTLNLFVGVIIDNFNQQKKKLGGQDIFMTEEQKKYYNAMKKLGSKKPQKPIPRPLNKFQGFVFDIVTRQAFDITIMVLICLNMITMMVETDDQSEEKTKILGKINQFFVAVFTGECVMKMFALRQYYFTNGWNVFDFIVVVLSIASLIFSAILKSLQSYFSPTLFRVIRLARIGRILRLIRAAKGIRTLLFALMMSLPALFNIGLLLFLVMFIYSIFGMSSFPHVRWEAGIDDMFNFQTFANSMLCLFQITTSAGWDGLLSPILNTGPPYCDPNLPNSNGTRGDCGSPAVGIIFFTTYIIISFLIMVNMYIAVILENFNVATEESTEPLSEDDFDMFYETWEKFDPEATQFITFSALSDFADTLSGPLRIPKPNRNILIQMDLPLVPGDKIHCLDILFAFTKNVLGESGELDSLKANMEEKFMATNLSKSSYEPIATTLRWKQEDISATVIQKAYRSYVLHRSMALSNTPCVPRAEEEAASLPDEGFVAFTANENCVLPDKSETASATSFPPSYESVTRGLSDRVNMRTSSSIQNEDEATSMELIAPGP

NaV1.8 [2] = target: T1, NaV1.8; assay: Activity against NaV 1.8 channel (NaV inhibition assays, Table 4); format: cell-based
Method: Compounds of the invention are useful as antagonists of voltage-gated sodium ion channels. Antagonist properties of test compounds were assessed as follows. Cells expressing the NaV of interest were placed into microtiter plates. After an incubation period, the cells were stained with fluorescent dyes sensitive to the transmembrane potential. The test compounds were added to the microtiter plate. The cells were stimulated with either a chemical or electrical means to evoke a NaV dependent membrane potential change from unblocked channels, which was detected and measured with trans-membrane potential-sensitive dyes. Antagonists were detected as a decreased membrane potential response to the stimulus. The optical membrane potential assay utilized voltage-sensitive FRET sensors described by Gonzalez and Tsien (See Gonzalez, J. E. and R. Y. Tsien (1995) “Voltage sensing by fluorescence resonance energy transfer in single cells” Biophys J 69(4): 1272-80, and Gonzalez, J. E. and R. Y. Tsien (1997) “Improved indicators of cell membrane potential that use fluorescence resonance energy transfer” Chem Biol 4(4): 269-77) in combination with instrumentation for measuring fluorescence changes such as the Voltage/Ion Probe Reader (VIPR®) (See, Gonzalez, J. E., K. Oades, et al. (1999) “Cell-based assays and instrumentation for screening ion-channel targets” Drug Discov Today 4(9): 431439).
24 hours before the assay on VIPR, CHO cells endogenously expressing a NaV1.2 type voltage-gated NaV are seeded in 96-well poly-lysine coated plates at 60,000 cells per well. Other subtypes are performed in an analogous mode in a cell line expressing the NaV of interest. • 1) On the day of the assay, medium is aspirated and cells are washed twice with 225 μL of Bath Solution #2 (BS#2). • 2) A 15 uM CC2-DMPE solution is prepared by mixing 5 mM coumarin stock solution with 10% Pluronic 127 1:1 and then dissolving the mix in the appropriate volume of BS#2. • 3) After bath solution is removed from the 96-well plates, the cells are loaded with 80 μL of the CC2-DMPE solution. Plates are incubated in the dark for 30 minutes at room temperature. • 4) While the cells are being stained with coumarin, a […] oxonol solution in BS#2 is prepared. In addition to DiSBAC2(3), this solution should contain 0.75 mM ABSC1 and […] veratridine (prepared from 10 mM EtOH stock, Sigma #V-5754). • 5) After 30 minutes, CC2-DMPE is removed and the cells are washed twice with 225 μL of BS#2. […] The cells are then incubated for 20-30 minutes. • 7) Once the incubation is complete, the cells are ready to be assayed on VIPR® with a sodium addback protocol. […]
The following is an example of how NaV1.3 inhibition activity is measured using the optical membrane potential method#2. […]

Sequence of NaV1.3 (Q9NY46 whole entry, looked up): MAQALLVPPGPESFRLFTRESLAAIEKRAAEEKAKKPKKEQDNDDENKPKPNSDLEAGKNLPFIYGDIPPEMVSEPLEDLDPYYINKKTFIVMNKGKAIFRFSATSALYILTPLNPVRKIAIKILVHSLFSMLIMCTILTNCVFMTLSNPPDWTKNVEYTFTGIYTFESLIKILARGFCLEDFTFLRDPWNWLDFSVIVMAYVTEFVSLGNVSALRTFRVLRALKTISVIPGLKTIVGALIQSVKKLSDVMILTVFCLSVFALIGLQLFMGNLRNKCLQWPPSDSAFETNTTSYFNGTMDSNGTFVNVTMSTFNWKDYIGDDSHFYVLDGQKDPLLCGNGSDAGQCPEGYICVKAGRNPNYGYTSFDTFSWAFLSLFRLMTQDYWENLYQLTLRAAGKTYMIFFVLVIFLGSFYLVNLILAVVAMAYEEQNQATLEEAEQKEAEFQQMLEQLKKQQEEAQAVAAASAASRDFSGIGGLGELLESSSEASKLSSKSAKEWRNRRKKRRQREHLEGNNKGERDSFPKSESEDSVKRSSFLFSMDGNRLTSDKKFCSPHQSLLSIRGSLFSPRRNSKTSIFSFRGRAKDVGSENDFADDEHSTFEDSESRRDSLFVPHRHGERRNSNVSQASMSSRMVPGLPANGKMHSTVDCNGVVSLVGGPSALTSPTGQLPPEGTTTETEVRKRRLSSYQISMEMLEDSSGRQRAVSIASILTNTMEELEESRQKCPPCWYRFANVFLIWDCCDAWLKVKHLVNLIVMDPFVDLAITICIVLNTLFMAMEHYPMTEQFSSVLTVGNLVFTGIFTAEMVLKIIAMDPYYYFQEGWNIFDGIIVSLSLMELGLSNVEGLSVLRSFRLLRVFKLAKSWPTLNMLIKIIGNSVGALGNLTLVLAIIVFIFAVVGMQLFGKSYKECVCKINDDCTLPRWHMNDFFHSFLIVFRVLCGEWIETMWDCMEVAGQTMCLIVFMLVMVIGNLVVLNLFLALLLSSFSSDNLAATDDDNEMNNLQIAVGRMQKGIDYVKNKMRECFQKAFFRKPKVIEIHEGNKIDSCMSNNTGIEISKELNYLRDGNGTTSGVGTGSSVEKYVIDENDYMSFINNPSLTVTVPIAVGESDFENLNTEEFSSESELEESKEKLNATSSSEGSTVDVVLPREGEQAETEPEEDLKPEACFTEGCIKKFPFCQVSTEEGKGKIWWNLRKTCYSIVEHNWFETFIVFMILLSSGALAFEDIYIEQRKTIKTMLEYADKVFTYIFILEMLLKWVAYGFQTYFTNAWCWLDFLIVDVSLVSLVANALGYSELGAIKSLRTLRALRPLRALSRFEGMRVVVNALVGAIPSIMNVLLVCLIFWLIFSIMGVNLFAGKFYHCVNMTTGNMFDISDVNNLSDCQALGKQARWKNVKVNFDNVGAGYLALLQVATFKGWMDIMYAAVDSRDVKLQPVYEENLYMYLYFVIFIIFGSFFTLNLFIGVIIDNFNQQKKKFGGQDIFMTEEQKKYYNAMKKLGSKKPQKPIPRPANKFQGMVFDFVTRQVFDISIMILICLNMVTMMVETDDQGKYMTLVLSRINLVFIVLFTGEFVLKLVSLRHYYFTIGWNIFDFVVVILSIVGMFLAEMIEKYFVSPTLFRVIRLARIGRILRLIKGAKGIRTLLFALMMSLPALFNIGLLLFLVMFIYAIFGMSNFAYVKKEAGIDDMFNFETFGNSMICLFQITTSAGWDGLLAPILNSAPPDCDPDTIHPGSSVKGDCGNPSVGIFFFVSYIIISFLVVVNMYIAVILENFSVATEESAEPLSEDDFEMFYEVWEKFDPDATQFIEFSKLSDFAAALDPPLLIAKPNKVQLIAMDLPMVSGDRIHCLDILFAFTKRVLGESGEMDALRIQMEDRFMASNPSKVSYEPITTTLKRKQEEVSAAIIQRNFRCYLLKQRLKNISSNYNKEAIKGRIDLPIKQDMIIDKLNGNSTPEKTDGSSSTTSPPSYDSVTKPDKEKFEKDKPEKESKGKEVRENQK

| SMILES | IC50 (NaV1.8 [2]) [µM] | also measured |
| --- | --- | --- |
| NCC1(CC(=O)O)CCCCC1 [Gabapentin] | – | share of patients in whom it works (neuropathic pain): 60% |
| NC1=N[C@H](O)[C@H]2[C@H]3O[C@]4(O)O[C@@H]([C@@H](O)[C@@]2(N1)[C@@H]4O)[C@]3(O)CO [TTX, tetrodotoxin] | – | IC50 (NaV1.3): 0.015 µM; IC50 (NaV1.8 [1]): > 50 µM |
| CC(C)COC(=O)N1CCN(c2cccc(-c3ccccc3O)n2)CC1 [Compound 3, 4-[6-(2-hydroxyphenyl)-2-pyridyl]piperazine-1-carboxylic acid isobutyl ester] | 10 to 15 | – |
| CC(C)COC(=O)N1CCN(c2ccnc(-c3ccccc3O)c2)CC1 [Compound 1, Isobutyl 4-(2-(2-hydroxyphenyl)pyridin-4-yl)piperazine-1-carboxylate] | > 15 | – |
| CC(C)C[C@@H](O)C(=O)N1CCN(c2cccc(-c3ccccc3O)n2)CC1 [Compound 4, (R)-2-hydroxy-1-(4-(6-(2-hydroxyphenyl)pyridin-2-yl)piperazin-1-yl)-4-methylpentan-1-one] | < 10 | – |
| CC(C)COC(=O)N1CCN(c2cc(-c3ccccc3O)ccn2)CC1 [Compound 5, Isobutyl-4-[4′-(2-hydroxyphenyl)-pyridin-2′-yl]-piperazine-1-carboxylate] | > 15 | – |
